Source: ChEMBL document CHEMBL1201862, “PubChem BioAssay data set” (2004)
The source made the active and inactive calls. Cut-off read from the data, not from the text of the source, for most assays here: actives have a measured IC50 and inactives only a lower limit.

Columns and labels:
[1] = molecular target: T1, Sentrin-specific protease 8 (Homo sapiens, UniProt Q96LD8); test: SENP8 protease inhibitors, SAR follow-up, biochemical, luminescence (AID 504501); type: functional
T1 sequence (Q96LD8 whole entry): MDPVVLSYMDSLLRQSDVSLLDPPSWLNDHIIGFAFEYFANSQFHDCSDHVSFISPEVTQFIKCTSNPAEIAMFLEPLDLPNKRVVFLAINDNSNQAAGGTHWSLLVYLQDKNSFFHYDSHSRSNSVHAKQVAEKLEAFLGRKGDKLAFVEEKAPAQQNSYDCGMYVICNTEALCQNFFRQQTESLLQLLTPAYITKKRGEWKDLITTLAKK

[2] = molecular target: T2, Caspase-3 (Homo sapiens, UniProt P42574); test: caspase-3 inhibitors as off-family protease, SAR follow-up, selectivity assay for SENP protease inhibitor project, biochemical, luminescence, set 2 (AID 588599); type: functional
T2 sequence (P42574 whole entry): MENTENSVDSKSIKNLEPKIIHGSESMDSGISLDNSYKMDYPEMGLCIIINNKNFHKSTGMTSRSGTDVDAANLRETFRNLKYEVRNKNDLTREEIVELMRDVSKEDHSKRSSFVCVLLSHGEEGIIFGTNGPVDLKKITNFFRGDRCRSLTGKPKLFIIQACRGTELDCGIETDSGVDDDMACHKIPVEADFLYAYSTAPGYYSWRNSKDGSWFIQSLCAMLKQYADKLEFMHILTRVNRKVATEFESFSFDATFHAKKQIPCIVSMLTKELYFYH

[3] = molecular target: T1, Sentrin-specific protease 8; test: SENP8 protease inhibitors, SAR follow-up, biochemical, luminescence, set 2 (AID 588601); type: functional
[4] = molecular target: T2, Caspase-3; test: SAR Analysis of small molecule inhibitors of Sentrin-specific proteases (SENPs) using a Caspase-3 Selectivity assay. [Related pubchem assays (depositor defined):AID2540, AID2599, AID434973, AID489001]; type: functional
[5] = molecular target: T3, Sentrin-specific protease 7 (Homo sapiens, UniProt Q9BQF6); test: SENP7 protease inhibitors, SAR follow-up, biochemical, luminescence, set 2 (AID 588600); type: functional
T3 sequence (Q9BQF6 whole entry): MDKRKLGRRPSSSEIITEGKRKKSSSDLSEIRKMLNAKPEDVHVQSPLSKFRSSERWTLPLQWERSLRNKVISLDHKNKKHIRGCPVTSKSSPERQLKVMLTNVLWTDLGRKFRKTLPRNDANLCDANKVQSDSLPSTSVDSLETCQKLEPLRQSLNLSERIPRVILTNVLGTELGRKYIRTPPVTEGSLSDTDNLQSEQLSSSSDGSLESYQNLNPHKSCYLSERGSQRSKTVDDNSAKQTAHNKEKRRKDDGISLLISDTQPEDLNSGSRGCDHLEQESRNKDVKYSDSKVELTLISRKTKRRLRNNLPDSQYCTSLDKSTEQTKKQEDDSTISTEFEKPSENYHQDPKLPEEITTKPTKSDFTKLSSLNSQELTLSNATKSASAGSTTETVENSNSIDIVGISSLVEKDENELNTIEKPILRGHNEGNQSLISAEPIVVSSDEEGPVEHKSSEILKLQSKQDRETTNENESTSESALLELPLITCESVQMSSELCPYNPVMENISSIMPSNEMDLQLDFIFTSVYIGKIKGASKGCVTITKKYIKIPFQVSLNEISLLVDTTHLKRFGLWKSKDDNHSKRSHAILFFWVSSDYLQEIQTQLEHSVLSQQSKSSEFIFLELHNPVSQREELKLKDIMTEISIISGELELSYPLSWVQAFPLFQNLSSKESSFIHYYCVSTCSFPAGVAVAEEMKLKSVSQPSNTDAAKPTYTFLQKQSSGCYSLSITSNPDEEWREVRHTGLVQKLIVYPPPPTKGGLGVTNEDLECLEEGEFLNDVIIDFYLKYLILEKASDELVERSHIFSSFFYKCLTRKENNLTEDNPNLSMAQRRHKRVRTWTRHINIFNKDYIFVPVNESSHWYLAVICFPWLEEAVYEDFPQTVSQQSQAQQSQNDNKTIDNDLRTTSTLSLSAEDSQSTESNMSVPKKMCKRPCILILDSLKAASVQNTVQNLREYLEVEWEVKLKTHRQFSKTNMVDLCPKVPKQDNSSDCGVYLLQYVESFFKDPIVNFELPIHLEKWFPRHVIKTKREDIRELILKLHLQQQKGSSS

[6] = molecular target: T4, Sentrin-specific protease 6 (Homo sapiens, UniProt Q9GZR1); test: SAR Analysis of small molecule inhibitors of Sentrin-specific protease 6 (SENP6) using a Luminescent assay. [Related pubchem assays (depositor defined):AID2582, AID2599]; type: functional
T4 sequence (Q9GZR1 whole entry): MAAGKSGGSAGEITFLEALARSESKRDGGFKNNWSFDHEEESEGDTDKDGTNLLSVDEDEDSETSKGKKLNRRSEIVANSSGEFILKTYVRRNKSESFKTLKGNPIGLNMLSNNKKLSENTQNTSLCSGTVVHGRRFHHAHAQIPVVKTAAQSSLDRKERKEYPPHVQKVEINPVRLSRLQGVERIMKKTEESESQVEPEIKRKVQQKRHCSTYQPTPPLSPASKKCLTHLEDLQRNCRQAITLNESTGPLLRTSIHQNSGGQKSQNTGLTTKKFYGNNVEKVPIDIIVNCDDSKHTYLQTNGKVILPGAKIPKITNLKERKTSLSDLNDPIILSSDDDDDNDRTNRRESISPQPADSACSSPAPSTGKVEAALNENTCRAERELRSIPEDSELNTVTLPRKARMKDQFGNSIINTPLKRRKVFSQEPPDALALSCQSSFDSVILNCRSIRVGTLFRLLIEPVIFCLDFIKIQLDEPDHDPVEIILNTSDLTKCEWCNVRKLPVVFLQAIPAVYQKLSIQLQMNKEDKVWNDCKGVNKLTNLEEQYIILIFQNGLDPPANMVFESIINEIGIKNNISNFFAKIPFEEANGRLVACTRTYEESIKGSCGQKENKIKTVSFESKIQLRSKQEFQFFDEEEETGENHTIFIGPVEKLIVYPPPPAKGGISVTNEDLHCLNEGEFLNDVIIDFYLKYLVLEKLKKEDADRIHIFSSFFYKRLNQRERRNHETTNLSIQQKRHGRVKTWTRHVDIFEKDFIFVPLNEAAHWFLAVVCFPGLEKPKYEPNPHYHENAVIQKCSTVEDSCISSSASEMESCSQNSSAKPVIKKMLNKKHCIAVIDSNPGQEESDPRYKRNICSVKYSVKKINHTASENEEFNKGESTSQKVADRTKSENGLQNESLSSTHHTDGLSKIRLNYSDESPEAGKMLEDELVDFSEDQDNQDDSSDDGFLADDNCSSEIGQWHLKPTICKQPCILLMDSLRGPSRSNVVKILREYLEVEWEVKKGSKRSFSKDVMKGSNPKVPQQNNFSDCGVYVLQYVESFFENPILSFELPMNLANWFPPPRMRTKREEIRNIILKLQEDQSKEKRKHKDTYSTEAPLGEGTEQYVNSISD

[7] = molecular target: T4, Sentrin-specific protease 6; test: SENP6 protease inhibitors, SAR follow-up, biochemical, luminescence, set 2 (AID 588598); type: functional
[8] = molecular target: T3, Sentrin-specific protease 7; test: SENP7 protease inhibitors, SAR follow-up, biochemical, luminescence (AID 504497); type: functional
[9] = molecular target: Large T antigen (Simian virus 40, UniProt P03070); type: functional, Betapolyomavirus macacae;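 note: Confirmatory-stage PubChem screen for compounds that inhibit SV40 T antigen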
[10] = molecular target: T5, Bcl-2-related protein A1 (Mus musculus, UniProt Q07440); type: functional;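 note: confirmatory dose–response counterscreen on Bfl-1, used to check hits from a UBC13 polyubiquitin inhibitor campaign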
T5 sequence (Q07440 whole entry): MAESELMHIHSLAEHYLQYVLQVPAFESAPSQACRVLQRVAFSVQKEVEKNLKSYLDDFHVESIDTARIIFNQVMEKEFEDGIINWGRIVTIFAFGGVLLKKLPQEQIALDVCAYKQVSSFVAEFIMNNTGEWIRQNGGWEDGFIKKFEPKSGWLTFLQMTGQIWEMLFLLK

[11] = molecular target: T6, Ubiquitin-conjugating enzyme E2 N (Homo sapiens, UniProt P61088); type: functional
T6 sequence (P61088 whole entry): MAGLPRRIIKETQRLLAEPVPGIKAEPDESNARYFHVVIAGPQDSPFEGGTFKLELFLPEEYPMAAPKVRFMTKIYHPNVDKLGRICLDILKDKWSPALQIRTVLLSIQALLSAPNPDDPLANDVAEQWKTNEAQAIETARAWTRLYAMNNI

[12] = molecular target: T6, Ubiquitin-conjugating enzyme E2 N; type: functional; remark: listed apart in the source
[13] = molecular target: Heat shock protein HSP 90-alpha (Homo sapiens, UniProt P07900); type: functional, organism-based
[14] = molecular target: T7, Insulin-degrading enzyme (Homo sapiens, UniProt P14735); test: activators of recombinant IDE enzyme, dose response, counter-screen for IDE activator project, biochemical, fluorescence polarization (AID 588681)
T7 sequence (P14735 whole entry): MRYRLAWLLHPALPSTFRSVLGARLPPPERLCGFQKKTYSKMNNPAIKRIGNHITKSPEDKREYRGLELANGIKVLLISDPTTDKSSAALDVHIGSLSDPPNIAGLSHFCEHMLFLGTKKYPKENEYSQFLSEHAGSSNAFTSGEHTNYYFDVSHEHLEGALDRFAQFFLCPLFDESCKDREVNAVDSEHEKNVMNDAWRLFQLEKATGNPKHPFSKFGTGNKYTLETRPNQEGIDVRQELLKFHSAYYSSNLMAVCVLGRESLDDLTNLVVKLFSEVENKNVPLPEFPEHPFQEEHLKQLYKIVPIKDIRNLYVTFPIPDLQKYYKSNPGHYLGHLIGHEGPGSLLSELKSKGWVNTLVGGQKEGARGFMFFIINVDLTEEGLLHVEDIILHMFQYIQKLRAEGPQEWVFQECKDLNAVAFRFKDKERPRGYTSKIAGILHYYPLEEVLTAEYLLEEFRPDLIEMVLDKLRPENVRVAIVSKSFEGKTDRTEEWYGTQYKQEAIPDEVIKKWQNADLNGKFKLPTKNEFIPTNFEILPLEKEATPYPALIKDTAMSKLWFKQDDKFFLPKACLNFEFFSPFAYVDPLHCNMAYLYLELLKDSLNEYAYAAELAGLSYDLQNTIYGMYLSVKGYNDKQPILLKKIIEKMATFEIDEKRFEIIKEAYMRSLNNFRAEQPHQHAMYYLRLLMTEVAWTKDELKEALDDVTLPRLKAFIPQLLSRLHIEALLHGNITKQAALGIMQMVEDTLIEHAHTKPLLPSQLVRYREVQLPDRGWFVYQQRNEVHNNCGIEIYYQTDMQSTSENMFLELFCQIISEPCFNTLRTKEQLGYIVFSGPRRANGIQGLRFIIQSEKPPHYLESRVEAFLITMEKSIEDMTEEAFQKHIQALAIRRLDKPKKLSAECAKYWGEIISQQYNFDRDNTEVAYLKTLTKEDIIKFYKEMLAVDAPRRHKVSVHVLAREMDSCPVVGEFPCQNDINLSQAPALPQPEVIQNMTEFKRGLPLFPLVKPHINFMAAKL

[15] = molecular target: Apoptotic protease-activating factor 1 (Homo sapiens, UniProt O14727); type: functional
[16] = molecular target: T7, Insulin-degrading enzyme; test: activators of endogenous IDE in HEK cells, dose response, cell-based, fluorescence polarization (AID 588439); type: functional
[17] = test system: INS1; test: beta cell apoptosis inhibitors, cytokine rescue, dose response, luminescence, retest (AID 449756); type: functional, cell-based; settings: Rattus norvegicus;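 note: cell death triggered by IL-1 beta plus TNF-alpha plus IFN-gamma mixture; protective hits raise ATP signal compared with cytokine alone wells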
[18] = test system: HEK293; test: HEK cell cytotoxicity by LDH release, dose response, cytotoxicity control for IDE activator project, fluorescence, HEK cells (AID 588440); type: functional, cell-based; settings: Homo sapiens;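 note: cytotoxicity by LDH release measuring loss of membrane integrity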
[19] = molecular target: Dual specificity tyrosine-phosphorylation-regulated kinase 1A (Rattus norvegicus, UniProt Q63470); type: biochemical, Homo sapiens
[20] = test system: HEK293; test: optical interference in Abeta FP readout, dose response, artefact control for IDE activator project, biochemical, fluorescence polarization (AID 588442); type: functional, cell-based; settings: Homo sapiens
[21] = HeLa 2N DNA content increase, dose response, cell-based, IC50 (AID 1117349); type: functional
[22] = half-maximal inhibitory concentration for glucagon-like peptide-1 release, STC-1 cell line, dose-response (AID 1117345); type: functional, cell-based
[23] = HeLa 4N DNA content increase, dose response, cell-based, IC50 (AID 1117351); type: functional
[24] = Glucagon-like peptide 1 release potency, NCI-H716 cell line, dose-response, half-maximal inhibitory concentration (AID 1117344); type: functional, cell-based

Apoptotic protease-activating factor 1, sequence (O14727 whole entry): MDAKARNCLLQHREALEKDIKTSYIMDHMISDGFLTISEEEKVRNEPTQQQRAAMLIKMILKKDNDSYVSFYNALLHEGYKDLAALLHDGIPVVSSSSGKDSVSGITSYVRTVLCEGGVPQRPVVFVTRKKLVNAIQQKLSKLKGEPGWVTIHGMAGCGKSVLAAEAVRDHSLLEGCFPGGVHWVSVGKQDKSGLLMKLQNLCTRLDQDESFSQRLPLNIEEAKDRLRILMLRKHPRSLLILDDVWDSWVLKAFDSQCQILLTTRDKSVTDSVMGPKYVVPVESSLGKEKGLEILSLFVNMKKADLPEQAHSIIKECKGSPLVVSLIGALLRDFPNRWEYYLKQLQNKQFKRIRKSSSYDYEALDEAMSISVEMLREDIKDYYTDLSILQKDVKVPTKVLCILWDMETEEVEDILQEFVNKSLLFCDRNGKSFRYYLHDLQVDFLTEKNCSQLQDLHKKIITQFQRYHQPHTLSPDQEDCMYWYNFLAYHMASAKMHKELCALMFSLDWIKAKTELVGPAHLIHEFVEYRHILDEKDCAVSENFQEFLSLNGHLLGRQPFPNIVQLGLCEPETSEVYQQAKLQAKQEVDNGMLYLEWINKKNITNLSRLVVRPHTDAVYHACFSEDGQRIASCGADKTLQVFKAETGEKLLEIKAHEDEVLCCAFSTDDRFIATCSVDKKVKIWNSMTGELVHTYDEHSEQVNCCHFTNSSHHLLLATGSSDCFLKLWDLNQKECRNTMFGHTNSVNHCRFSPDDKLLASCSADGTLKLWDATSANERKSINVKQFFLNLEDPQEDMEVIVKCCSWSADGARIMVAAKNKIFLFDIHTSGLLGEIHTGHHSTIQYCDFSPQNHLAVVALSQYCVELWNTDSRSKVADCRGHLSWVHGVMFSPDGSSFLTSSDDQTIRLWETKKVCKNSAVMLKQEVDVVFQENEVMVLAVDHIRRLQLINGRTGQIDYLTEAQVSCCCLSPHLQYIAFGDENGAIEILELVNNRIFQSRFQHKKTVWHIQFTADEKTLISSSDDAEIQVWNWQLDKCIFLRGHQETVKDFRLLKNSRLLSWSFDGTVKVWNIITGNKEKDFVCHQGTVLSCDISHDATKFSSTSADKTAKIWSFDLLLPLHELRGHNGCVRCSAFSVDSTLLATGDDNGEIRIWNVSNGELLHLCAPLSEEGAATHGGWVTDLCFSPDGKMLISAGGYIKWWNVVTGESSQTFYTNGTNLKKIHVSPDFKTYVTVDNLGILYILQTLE
Large T antigen, sequence (P03070 whole entry): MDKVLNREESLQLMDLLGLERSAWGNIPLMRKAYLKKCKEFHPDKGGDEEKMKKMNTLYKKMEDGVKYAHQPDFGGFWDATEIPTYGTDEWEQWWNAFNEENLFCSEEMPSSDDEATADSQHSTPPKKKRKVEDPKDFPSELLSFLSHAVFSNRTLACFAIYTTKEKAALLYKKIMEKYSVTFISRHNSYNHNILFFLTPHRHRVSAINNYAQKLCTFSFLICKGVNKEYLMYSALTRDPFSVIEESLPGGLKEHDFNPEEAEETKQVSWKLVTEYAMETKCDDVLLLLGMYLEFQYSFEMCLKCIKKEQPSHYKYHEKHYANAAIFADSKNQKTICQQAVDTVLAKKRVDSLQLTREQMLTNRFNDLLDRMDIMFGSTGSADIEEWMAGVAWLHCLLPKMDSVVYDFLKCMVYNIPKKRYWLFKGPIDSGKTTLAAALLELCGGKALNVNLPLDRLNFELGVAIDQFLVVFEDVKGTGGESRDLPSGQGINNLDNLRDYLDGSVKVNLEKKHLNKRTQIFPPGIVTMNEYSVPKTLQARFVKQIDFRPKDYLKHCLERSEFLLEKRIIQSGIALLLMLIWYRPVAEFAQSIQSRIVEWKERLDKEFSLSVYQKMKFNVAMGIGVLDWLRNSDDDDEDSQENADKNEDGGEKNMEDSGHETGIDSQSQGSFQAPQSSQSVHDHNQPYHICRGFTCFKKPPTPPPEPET

COc1cccc(-c2nc(/C=C/c3ccccc3)no2)c1
IC50 [1]: 52 µM (active) | IC50 [2]: 33.5 µM (active) | IC50 [3]: 12.2 µM (active) | IC50 [4]: 47 µM (active) | IC50 [5]: 12.2 µM (active) | IC50 [6]: 45 µM (active) | IC50 [7]: 13.5 µM (active) | IC50 [8]: 14 µM (active)

CCCCCCCCCCCCCCCC[N+](C)(C)CCN(Cc1ccc(OC)cc1)c1ncccn1 [THONZONIUM BROMIDE]
IC50 [9]: 15.4 µM (active) | IC50 [10]: 6.44 µM (active) | IC50 [11]: 2.86 µM (active) | IC50 [12]: 2.99 µM (active) | AC50 [13]: 6.06 µM (active) | EC50 [14]: 53.3 µM (inactive) | IC50 [15]: 8.37 µM (active) | EC50 [16]: > 54.7 µM (inactive) | AC50 [17]: 2.54 µM (active) | IC50 [18]: 5.21 µM (active) | AC50 [19]: 9.42 µM (active) | EC50 [20]: > 55.9 µM (inactive) | IC50 [21]: > 10 µM (inactive) | IC50 [22]: > 40 µM (inactive) | IC50 [23]: > 10 µM (inactive) | IC50 [24]: 17.8 µM (inactive)
